test system: HCT116 colorectal cancer cells; experiment: Cisplatin sensitization assay (96 h MTS cell viability); assay type: cell-based; conditions: Cisplatin sensitization value;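 also: compound concentration needed to lower the IC50 of Cisplatin alone by a set fold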
How it was run: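 HCT116 cells were dosed simultaneously with compound and cisplatin as a full matrix of 2-fold serial dilutions from 10 μM top final concentration. Incubation was 96 h at 37° C., 5% CO2, followed by 1 h with MTS reagent for the viability read-out. Sensitization values were binned into +++, ++ and + categories.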

| Compound | Cisplatin Sensitization Assay |
| --- | --- |
| Cc1nnccc1-c1ccncc1NC(=O)c1c(N)nn2cc(F)cnc12 [I-C-31, 2-amino-6-fluoro-N-(4-(3-methylpyridazin-4-yl)pyridin-3-yl)pyrazolo[1,5-a]pyrimidine-3-carboxamide] | +++ (Compounds with a Cisplatin sensitization value of <0.02 μM are marked with “+++.”) |
| Nc1nn2cc(F)cnc2c1C(=O)Nc1cnccc1-c1ccccn1 [I-C-60, N-([2,4′-bipyridin]-3′-yl)-2-amino-6-fluoropyrazolo[1,5-a]pyrimidine-3-carboxamide] | ++ (Compounds with a Cisplatin sensitization value >0.02 μM but <0.2 μM are marked with “++.”) |
| CN1CC[C@@H](OC2CCN(c3ccncc3NC(=O)c3c(N)nn4cc(F)cnc34)CC2)C1 [I-N-131] | +++ (Compounds with a Cisplatin sensitization value of <0.02 μM are marked with “+++.”) |
| Cc1cncc(NC(=O)c2c(N)nn3cc(F)cnc23)c1N1CCN(C2COC2)CC1 [I-N-16, 2-amino-6-fluoro-N-(5-methyl-4-(4-(oxetan-3-yl)piperazin-1-yl)pyridin-3-yl)pyrazolo[1,5-a]pyrimidine-3-carboxamide] | +++ (Compounds with a Cisplatin sensitization value of <0.02 μM are marked with “+++.”) |
| Nc1nn2cc(Cl)cnc2c1C(=O)Nc1cnccc1O[C@H]1C[C@@]2(CCN2)C1 [I-O-79] | ++ (Compounds with a Cisplatin sensitization value >0.02 μM but <0.2 μM are marked with “++.”) |
| CN(C)CCN1CCN(c2ccncc2NC(=O)c2c(N)nn3cc(Cl)cnc23)CC1 [I-N-49, 2-amino-6-chloro-N-(4-(4-(2-(dimethylamino)ethyl)piperazin-1-yl)pyridin-3-yl)pyrazolo[1,5-a]pyrimidine-3-carboxamide] | +++ (Compounds with a Cisplatin sensitization value of <0.02 μM are marked with “+++.”) |
| Nc1nn2cc(Cl)cnc2c1C(=O)Nc1cnccc1N1CCC(N2CC[C@H](F)C2)CC1 [I-N-103, (S)-2-amino-6-chloro-N-(4-(4-(3-fluoropyrrolidin-1-yl)piperidin-1-yl)pyridin-3-yl)pyrazolo[1,5-a]pyrimidine-3-carboxamide] | +++ (Compounds with a Cisplatin sensitization value of <0.02 μM are marked with “+++.”) |
| COC(=O)N1CCN(c2c(F)cncc2NC(=O)c2c(N)nn3cc(F)cnc23)CC1 [I-N-261, methyl-4-(3-(2-amino-6-fluoropyrazolo[1,5-a]pyrimidine-3-carboxamido)-5-fluoropyridin-4-yl)piperazine-1-carboxylate] | +++ (Compounds with a Cisplatin sensitization value of <0.02 μM are marked with “+++.”) |
| Nc1nn2cc(F)cnc2c1C(=O)Nc1cnccc1O[C@H]1CCCN(C2COC2)C1 [I-O-9, (S)-2-amino-6-fluoro-N-(4-((1-(oxetan-3-yl)piperidin-3-yl)oxy)pyridin-3-yl)pyrazolo[1,5-a]pyrimidine-3-carboxamide] | ++ (Compounds with a Cisplatin sensitization value >0.02 μM but <0.2 μM are marked with “++.”) |
| N#C[C@@H]1CCN(c2c(Cl)cncc2NC(=O)c2c(N)nn3cc(F)cnc23)C1 [I-N-285, (R)-2-amino-N-(5-chloro-4-(3-cyanopyrrolidin-1-yl)pyridin-3-yl)-6-fluoropyrazolo[1,5-a]pyrimidine-3-carboxamide] | ++ (Compounds with a Cisplatin sensitization value >0.02 μM but <0.2 μM are marked with “++.”) |
| CN(C)C(=O)C1CN(c2ccncc2NC(=O)c2c(N)nn3cc(F)cnc23)CCO1 (stereo not drawn) [I-N-234, 4-(3-(2-amino-6-fluoropyrazolo[1,5-a]pyrimidine-3-carboxamido)pyridin-4-yl)-N,N-dimethylmorpholine-2-carboxamide] | + (Compounds with a Cisplatin sensitization value >0.2 μM but <5 μM are marked with “+.”) |
| Nc1nn2cc(Cl)cnc2c1C(=O)Nc1cnccc1C1CCN(C2COC2)CC1 [I-C-11, 2-amino-6-chloro-N-(4-(1-(oxetan-3-yl)piperidin-4-yl)pyridin-3-yl)pyrazolo[1,5-a]pyrimidine-3-carboxamide] | +++ (Compounds with a Cisplatin sensitization value of <0.02 μM are marked with “+++.”) |
| Cc1ccncc1-c1ccncc1NC(=O)c1c(N)nn2cc(F)cnc12 [I-C-30, 2-amino-6-fluoro-N-(4-methyl-[3,4′-bipyridin]-3′-yl)pyrazolo[1,5-a]pyrimidine-3-carboxamide] | +++ (Compounds with a Cisplatin sensitization value of <0.02 μM are marked with “+++.”) |
| Nc1nn2cc(Cl)cnc2c1C(=O)Nc1cnccc1OC1CN2CCC1CC2 (stereo not drawn) [I-O-62, 2-amino-6-chloro-N-(4-(quinuclidin-3-yloxy)pyridin-3-yl)pyrazolo[1,5-a]pyrimidine-3-carboxamide] | +++ (Compounds with a Cisplatin sensitization value of <0.02 μM are marked with “+++.”) |
| Nc1nn2cc(Cl)cnc2c1C(=O)Nc1cnccc1N1CCN(CC(F)(F)F)CC1 [I-N-67, 2-amino-6-chloro-N-(4-(4-(2,2,2-trifluoroethyl)piperazin-1-yl)pyridin-3-yl)pyrazolo[1,5-a]pyrimidine-3-carboxamide] | +++ (Compounds with a Cisplatin sensitization value of <0.02 μM are marked with “+++.”) |
| Nc1nn2cc(F)cnc2c1C(=O)Nc1cnccc1N1CCN(C2COC2)C2CC21 (stereo not drawn) [I-N-112, 2-amino-6-fluoro-N-(4-(5-(oxetan-3-yl)-2,5-diazabicyclo[4.1.0]heptan-2-yl)pyridin-3-yl)pyrazolo[1,5-a]pyrimidine-3-carboxamide] | + (Compounds with a Cisplatin sensitization value >0.2 μM but <5 μM are marked with “+.”) |
| Nc1nn2cc(F)cnc2c1C(=O)Nc1cncc(F)c1N1CCN(C(=O)C23CCN(CC2)CC3)CC1 [I-N-134, 2-amino-6-fluoro-N-(5-fluoro-4-(4-(quinuclidine-4-carbonyl)piperazin-1-yl)pyridin-3-yl)pyrazolo[1,5-a]pyrimidine-3-carboxamide] | + (Compounds with a Cisplatin sensitization value >0.2 μM but <5 μM are marked with “+.”) |
| CN1CCN(c2ccncc2NC(=O)c2c(N)nn3cc(CC#N)cnc23)CC1 [I-N-82, 2-amino-6-(cyanomethyl)-N-(4-(4-methylpiperazin-1-yl)pyridin-3-yl)pyrazolo[1,5-a]pyrimidine-3-carboxamide] | ++ (Compounds with a Cisplatin sensitization value >0.02 μM but <0.2 μM are marked with “++.”) |
| Nc1nn2cc(F)cnc2c1C(=O)Nc1cnccc1OC1CCC(C(=O)O)CC1 (stereo not drawn) [I-O-8, 4-((3-(2-amino-6-fluoropyrazolo[1,5-a]pyrimidine-3-carboxamido)pyridin-4-yl)oxy)cyclohexanecarboxylic acid] | + (Compounds with a Cisplatin sensitization value >0.2 μM but <5 μM are marked with “+.”) |
| CNC(=O)C1CCN(c2c(F)cncc2NC(=O)c2c(N)nn3cc(F)cnc23)CC1 [I-G-33, 2-amino-6-fluoro-N-(5-fluoro-4-(4-(methylcarbamoyl)piperidin-1-yl)pyridin-3-yl)pyrazolo[1,5-a]pyrimidine-3-carboxamide] | +++ (Compounds with a Cisplatin sensitization value of <0.02 μM are marked with “+++.”) |
| CC(C)N1CCC(C(=O)N2CCN(c3c(F)cncc3NC(=O)c3c(N)nn4cc(F)cnc34)CC2)C1 (stereo not drawn) [I-N-206, 2-amino-6-fluoro-N-(5-fluoro-4-(4-(1-isopropylpyrrolidine-3-carbonyl)piperazin-1-yl)pyridin-3-yl)pyrazolo[1,5-a]pyrimidine-3-carboxamide] | +++ (Compounds with a Cisplatin sensitization value of <0.02 μM are marked with “+++.”) |
| Nc1nn2cc(F)cnc2c1C(=O)Nc1cnccc1N1CCN2C(=O)COCC2C1 (stereo not drawn) [I-N-136, 2-amino-6-fluoro-N-(4-(4-oxohexahydropyrazino[2,1-c][1,4]oxazin-8(1H)-yl)pyridin-3-yl)pyrazolo[1,5-a]pyrimidine-3-carboxamide] | ++ (Compounds with a Cisplatin sensitization value >0.02 μM but <0.2 μM are marked with “++.”) |
| Nc1nn2cc(Cl)cnc2c1C(=O)Nc1cnccc1OCCO [I-O-66, 2-amino-6-chloro-N-(4-(2-hydroxyethoxy)pyridin-3-yl)pyrazolo[1,5-a]pyrimidine-3-carboxamide] | + (Compounds with a Cisplatin sensitization value >0.2 μM but <5 μM are marked with “+.”) |
| Nc1nn2cc(F)cnc2c1C(=O)Nc1cnccc1N1CCN(S(=O)(=O)C2CCOCC2)CC1 [I-N-177, 2-amino-6-fluoro-N-(4-(4-((tetrahydro-2H-pyran-4-yl)sulfonyl)piperazin-1-yl)pyridin-3-yl)pyrazolo[1,5-a]pyrimidine-3-carboxamide] | +++ (Compounds with a Cisplatin sensitization value of <0.02 μM are marked with “+++.”) |
| CN1CCN(c2ccncc2NC(=O)c2c(N)nn3cc(F)cnc23)CC1=O [I-N-209, 2-amino-6-fluoro-N-(4-(4-methyl-3-oxopiperazin-1-yl)pyridin-3-yl)pyrazolo[1,5-a]pyrimidine-3-carboxamide] | +++ (Compounds with a Cisplatin sensitization value of <0.02 μM are marked with “+++.”) |
| COCC1CCN(c2ccncc2NC(=O)c2c(N)nn3cc(F)cnc23)CC1 [I-N-282, 2-amino-6-fluoro-N-(4-(4-(methoxymethyl)piperidin-1-yl)pyridin-3-yl)pyrazolo[1,5-a]pyrimidine-3-carboxamide] | +++ (Compounds with a Cisplatin sensitization value of <0.02 μM are marked with “+++.”) |
| Nc1nn2cc(F)cnc2c1C(=O)Nc1cnccc1N1CCN2CCOC[C@@H]2C1 [I-N-115, (S)-2-amino-6-fluoro-N-(4-(hexahydropyrazino[2,1-c][1,4]oxazin-8(1H)-yl)pyridin-3-yl)pyrazolo[1,5-a]pyrimidine-3-carboxamide] | +++ (Compounds with a Cisplatin sensitization value of <0.02 μM are marked with “+++.”) |

— US11117900B2 (Vertex Pharmaceuticals Incorporated, priority 2012, dated 2021)
